# Measurements taken from ChEMBL document CHEMBL2396618, “Macrocyclic inhibitors of 3C and 3C-like proteases of picornavirus, norovirus, and coronavirus” (Bioorg Med Chem Lett, 2013).
# What was measured:
# [1] = Inhibition of norovirus 3CLpro using Edans-DFHLQ/GP-Dabcyl as substrate preincubated for 30 mins followed by substrate addition by FRET assay
# Replicase polyprotein 1a = Replicase polyprotein 1a (Severe acute respiratory syndrome-related coronavirus, UniProt P0C6U8); test: Inhibition of SARS coronavirus 3CLpro using Dabcyl-KTSAVLQ/SGFRKME-Edans as substrate preincubated for 30 mins followed by substrate addition by FRET assay
# Genome polyprotein = Genome polyprotein (Coxsackievirus B3 (strain Nancy), UniProt P03313); test: Inhibition of Coxsackievirus B3 Nancy 3Cpro
# Sequence of Genome polyprotein (P03313 1541-1723 limits assumed): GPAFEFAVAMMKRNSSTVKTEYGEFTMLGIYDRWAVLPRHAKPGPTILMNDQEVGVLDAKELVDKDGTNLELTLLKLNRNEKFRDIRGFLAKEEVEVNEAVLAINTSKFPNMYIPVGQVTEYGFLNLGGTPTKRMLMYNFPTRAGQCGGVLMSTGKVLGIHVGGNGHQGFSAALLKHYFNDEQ
smiles,measurement,setting,value
CC(C)C[C@@H]1NC(=O)[C@@H](NC(=O)OCc2ccccc2)Cc2cn(nn2)CCCNC(=O)CC[C@@H](C=O)NC1=O,IC50,[1],5.1 µM
same,IC50,Replicase polyprotein 1a,15.5 µM
same,IC50,Genome polyprotein,1.8 µM
